Data taken from patent publication US20260070945A1, “MACROCYCLIC IMMUNOMODULATORS” (Bristol-Myers Squibb Company, priority 2022, published 2026).
Where a SMILES comes first, the peptide text is derived from it. Bridges are numbered along the chain shown (N, C = ends). [ ]: non-standard residue; d: D form. The star is where a group is joined. ξ: configuration not given here. Phe(3-CF3) = N[C@@H](Cc1cccc(C(F)(F)F)c1)C(=O)O; Phe(4-CF3) = N[C@@H](Cc1ccc(C(F)(F)F)cc1)C(=O)O; Phe(4-COOH) = N[C@@H](Cc1ccc(C(=O)O)cc1)C(=O)O; Bip = N[C@@H](Cc1ccc(-c2ccccc2)cc1)C(=O)O; NH(CH2)14COOH = O=C(O)CCCCCCCCCCCCCCN*; Phe(3-Me) = Cc1cccc(C[C@H](N)C(=O)O)c1; NH(CH2)12COOH = O=C(O)CCCCCCCCCCCCN*; Val(3-OH) = CC(C)(O)[C@H](N)C(=O)O; Cha = N[C@@H](CC1CCCCC1)C(=O)O; Cit = NC(=O)NCCC[C@H](N)C(=O)O; Thr(3ξ) = CC(O)[C@H](N)C(=O)O; Carboxymethyl = O=C(O)C*; NMeA = CN[C@@H](C)C(=O)O; Aun = NCCCCCCCCCCC(=O)O; Dab = NCC[C@H](N)C(=O)O; Abu = CC[C@H](N)C(=O)O; AEEA = NCCOCCOCC(=O)O

The compounds below were run against T1, PD-1/PD-L1 interaction (PE-labeled human PD-L1-Ig binding to Jurkat cell line over-expressing human PD-1) (Homo sapiens, UniProt Q15116) (assay: Jurkat-PD-1 Cell Binding High-Content Screening Assay (CBA)). Conditions: PE-labeled PD-L1-Ig 20 nM final, Jurkat-hPD-1 cells; read-out: Jurkat HPD1 PDL1 IC50.
T1 construct: expressed in transfected cells; host or cells: Jurkat
T1 sequence (Q15116 25-288): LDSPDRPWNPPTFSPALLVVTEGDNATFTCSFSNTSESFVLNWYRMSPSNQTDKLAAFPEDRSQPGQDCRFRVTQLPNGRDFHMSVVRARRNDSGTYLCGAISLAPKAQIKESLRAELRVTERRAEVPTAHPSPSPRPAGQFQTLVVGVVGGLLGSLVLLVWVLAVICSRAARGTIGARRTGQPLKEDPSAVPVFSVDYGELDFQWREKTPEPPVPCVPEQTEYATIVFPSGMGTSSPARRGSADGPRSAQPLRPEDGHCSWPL
How it was run: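 Jurkat-hPD-1 cells (8×10^3/well) in DMEM with 10% fetal calf serum were preincubated with compound for 2 h at 37 °C. PE-labeled PD-L1-Ig was then added at 20 nM final for 1 h. Cells were fixed in paraformaldehyde with Hoechst 33342, washed and imaged by high-content imaging.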
`CC(=O)NCCCC[C@@H]1NC(=O)[C@H](C(C)(C)O)NC(=O)[C@H](CC2CCCCC2)NC(=O)[C@H](CCN)NC(=O)[C@@H](CC(C)C)NC(=O)[C@H](C)N(C)C(=O)[C@H](CCC(N)=O)NC(=O)[C@H](Cc2ccc(-c3ccccc3)cc2)NC(=O)[C@H](Cc2ccc(C(=O)O)cc2)NC(=O)[C@H](Cc2cccc(C(F)(F)F)c2)NC(=O)[C@H](CC(=O)O)NC(=O)[C@H](Cc2ccc(OCC(=O)O)cc2)NC(=O)[C@H](Cc2ccc(OCC(=O)O)cc2)NC(=O)CSC[C@@H](C(=O)N[C@@H](CCN)C(=O)NCCCCCCCCCCCCC(=O)O)NC1=O` [Example 2565] ({CH2CO}-Y(Carboxymethyl)Y(Carboxymethyl)D[Phe(3-CF3)][Phe(4-COOH)][Bip]Q[NMeA][dL][Dab][Cha][Val(3-OH)]K(Ac)C[Dab]-{NH(CH2)12COOH}; thioether N-14) gave an IC50 of 3.3 nM. Work on `CC(C)C[C@H]1NC(=O)[C@H](C)N(C)C(=O)[C@H](Cc2ccc(C(=O)O)cc2)NC(=O)[C@H](Cc2ccc(-c3ccccc3)cc2)NC(=O)[C@H](Cc2ccc(C(=O)O)cc2)NC(=O)[C@H](Cc2cccc(C(F)(F)F)c2)NC(=O)[C@H](CC(=O)O)NC(=O)[C@H](Cc2ccc(C(=O)O)cc2)NC(=O)[C@H](C(C)O)NC(=O)CSC[C@@H](C(=O)N[C@@H](CCN)C(=O)NCCCCCCCCCCC(=O)O)NC(=O)[C@H](C(C)O)NC(=O)[C@H](C(C)C)NC(=O)[C@H](CC2CCCCC2)NC(=O)[C@H](CCN)NC1=O` (stereo partly drawn) [Example 2566] ({CH2CO}-[Thr(3ξ)][Phe(4-COOH)]D[Phe(3-CF3)][Phe(4-COOH)][Bip][Phe(4-COOH)][NMeA][dL][Dab][Cha]V[Thr(3ξ)]C[Dab][Aun]-OH; thioether N-14) yielded an IC50 of 4.5 nM. Work on `CC(C)C[C@H]1NC(=O)[C@H](C)N(C)C(=O)[C@H](Cc2ccc(C(=O)O)cc2)NC(=O)[C@H](Cc2ccc(-c3ccccc3)cc2)NC(=O)[C@H](Cc2ccc(C(=O)O)cc2)NC(=O)[C@H](Cc2cccc(C(F)(F)F)c2)NC(=O)[C@H](CC(=O)O)NC(=O)[C@H](Cc2ccc(C(=O)O)cc2)NC(=O)[C@H](C(C)O)NC(=O)CSC[C@@H](C(=O)N[C@@H](CCN)C(=O)NCCCCCCCCCCC(=O)O)NC(=O)[C@H](CO)NC(=O)[C@H](C(C)(C)O)NC(=O)[C@H](CC2CCCCC2)NC(=O)[C@H](CCN)NC1=O` (stereo partly drawn) [Example 2567] ({CH2CO}-[Thr(3ξ)][Phe(4-COOH)]D[Phe(3-CF3)][Phe(4-COOH)][Bip][Phe(4-COOH)][NMeA][dL][Dab][Cha][Val(3-OH)]SC[Dab][Aun]-OH; thioether N-14) yielded an IC50 of 2.2 nM. For `CC(C)C[C@H]1NC(=O)[C@H](C)N(C)C(=O)[C@H](Cc2ccc(C(=O)O)cc2)NC(=O)[C@H](Cc2ccc(-c3ccccc3)cc2)NC(=O)[C@H](Cc2ccc(C(=O)O)cc2)NC(=O)[C@H](Cc2cccc(C(F)(F)F)c2)NC(=O)[C@H](CC(=O)O)NC(=O)[C@H](Cc2ccc(C(=O)O)cc2)NC(=O)[C@H](C(C)O)NC(=O)CSC[C@@H](C(=O)N[C@@H](CCN)C(=O)NCCCCCCCCCCCCC(=O)O)NC(=O)[C@H](CO)NC(=O)[C@H](C(C)(C)O)NC(=O)[C@H](CC2CCCCC2)NC(=O)[C@H](CCN)NC1=O` (stereo partly drawn) [Example 2568] ({CH2CO}-[Thr(3ξ)][Phe(4-COOH)]D[Phe(3-CF3)][Phe(4-COOH)][Bip][Phe(4-COOH)][NMeA][dL][Dab][Cha][Val(3-OH)]SC[Dab]-{NH(CH2)12COOH}; thioether N-14), the IC50 was 22.8 nM. Work on `CC[C@@H]1NC(=O)CSC[C@@H](C(=O)N[C@@H](CCN)C(=O)NCCCCCCCCCCCCC(=O)O)NC(=O)[C@H](CO)NC(=O)[C@H](C(C)(C)O)NC(=O)[C@H](CC2CCCCC2)NC(=O)[C@H](CCN)NC(=O)[C@@H](CC(C)C)NC(=O)[C@H](C)N(C)C(=O)[C@H](Cc2ccc(C(=O)O)cc2)NC(=O)[C@H](Cc2ccc(-c3ccccc3)cc2)NC(=O)[C@H](Cc2ccc(C(=O)O)cc2)NC(=O)[C@H](Cc2cccc(C(F)(F)F)c2)NC(=O)[C@H](CC(=O)O)NC(=O)[C@H](Cc2ccc(C(=O)O)cc2)NC1=O` [Example 2569] ({CH2CO}-[Abu][Phe(4-COOH)]D[Phe(3-CF3)][Phe(4-COOH)][Bip][Phe(4-COOH)][NMeA][dL][Dab][Cha][Val(3-OH)]SC[Dab]-{NH(CH2)12COOH}; thioether N-14) yielded an IC50 of 45.3 nM. `CC(=O)NCCCC[C@@H]1NC(=O)[C@H](C(C)(C)O)NC(=O)[C@H](CC2CCCCC2)NC(=O)[C@H](CCN)NC(=O)[C@@H](CC(C)C)NC(=O)[C@H](C)N(C)C(=O)[C@H](CCCNC(N)=O)NC(=O)[C@H](Cc2ccc(-c3ccccc3)cc2)NC(=O)[C@H](Cc2ccc(C(=O)O)cc2)NC(=O)[C@H](Cc2cccc(C(F)(F)F)c2)NC(=O)[C@H](CC(=O)O)NC(=O)[C@H](Cc2ccc(OCC(=O)O)cc2)NC(=O)[C@H](Cc2ccc(OCC(=O)O)cc2)NC(=O)CSC[C@@H](C(=O)N[C@@H](CCN)C(=O)NCCCCCCCCCCC(=O)O)NC1=O` [Example 2570] ({CH2CO}-Y(Carboxymethyl)Y(Carboxymethyl)D[Phe(3-CF3)][Phe(4-COOH)][Bip][Cit][NMeA][dL][Dab][Cha][Val(3-OH)]K(Ac)C[Dab][Aun]-OH; thioether N-14) was tested, and the IC50 was 2.7 nM. In the case of `Cc1cccc(C[C@@H]2NC(=O)[C@H](CC(=O)O)NC(=O)[C@H](Cc3ccc(C(F)(F)F)cc3)NC(=O)[C@H](C(C)O)NC(=O)CSC[C@@H](C(=O)N[C@@H](CCN)C(=O)NCCCCCCCCCCC(=O)O)NC(=O)[C@H](C(C)O)NC(=O)[C@H](C(C)C)NC(=O)[C@H](CC3CCCCC3)NC(=O)[C@H](CCN)NC(=O)[C@@H](CC(C)C)NC(=O)[C@H](C)N(C)C(=O)[C@H](Cc3ccc(C(=O)O)cc3)NC(=O)[C@H](Cc3ccc(-c4ccccc4)cc3)NC(=O)[C@H](Cc3ccc(C(=O)O)cc3)NC2=O)c1` (stereo partly drawn) [Example 2571] ({CH2CO}-[Thr(3ξ)][Phe(4-CF3)]D[Phe(3-Me)][Phe(4-COOH)][Bip][Phe(4-COOH)][NMeA][dL][Dab][Cha]V[Thr(3ξ)]C[Dab][Aun]-OH; thioether N-14), the IC50 is reported as 108 nM. For `CC(C)C[C@H]1NC(=O)[C@H](C)N(C)C(=O)[C@H](Cc2ccc(C(=O)O)cc2)NC(=O)[C@H](Cc2ccc(-c3ccccc3)cc2)NC(=O)[C@H](Cc2ccc(C(=O)O)cc2)NC(=O)[C@H](Cc2cccc(C(F)(F)F)c2)NC(=O)[C@H](CC(=O)O)NC(=O)[C@H](Cc2ccc(C(=O)O)cc2)NC(=O)[C@H](C(C)O)NC(=O)CSC[C@@H](C(=O)N[C@@H](CCN)C(=O)NCCCCCCCCCCC(=O)O)NC(=O)[C@H](CCC(=O)O)NC(=O)[C@H](C(C)C)NC(=O)[C@H](CC2CCCCC2)NC(=O)[C@H](CCN)NC1=O` (stereo partly drawn) [Example 2572] ({CH2CO}-[Thr(3ξ)][Phe(4-COOH)]D[Phe(3-CF3)][Phe(4-COOH)][Bip][Phe(4-COOH)][NMeA][dL][Dab][Cha]VEC[Dab][Aun]-OH; thioether N-14), the IC50 was 11.5 nM. `CC(C)C[C@H]1NC(=O)[C@H](C)N(C)C(=O)[C@H](Cc2ccc(C(=O)O)cc2)NC(=O)[C@H](Cc2ccc(-c3ccccc3)cc2)NC(=O)[C@H](Cc2ccc(C(=O)O)cc2)NC(=O)[C@H](Cc2cccc(C(F)(F)F)c2)NC(=O)[C@H](CC(=O)O)NC(=O)[C@H](Cc2ccc(C(=O)O)cc2)NC(=O)[C@H](C(C)O)NC(=O)CSC[C@@H](C(=O)N[C@@H](CCN)C(=O)NCCCCCCCCCCC(=O)O)NC(=O)[C@H](C(C)O)NC(=O)[C@H](C(C)(C)O)NC(=O)[C@H](CC2CCCCC2)NC(=O)[C@H](CCN)NC1=O` (stereo partly drawn) [Example 2573] ({CH2CO}-[Thr(3ξ)][Phe(4-COOH)]D[Phe(3-CF3)][Phe(4-COOH)][Bip][Phe(4-COOH)][NMeA][dL][Dab][Cha][Val(3-OH)][Thr(3ξ)]C[Dab][Aun]-OH; thioether N-14) was tested, and the IC50 was 9.7 nM. Compound `CC(C)C[C@H]1NC(=O)[C@H](C)N(C)C(=O)[C@H](Cc2ccc(OCC(=O)O)cc2)NC(=O)[C@H](Cc2ccc(-c3ccccc3)cc2)NC(=O)[C@H](Cc2ccc(C(=O)O)cc2)NC(=O)[C@H](Cc2cccc(C(F)(F)F)c2)NC(=O)[C@H](CC(=O)O)NC(=O)[C@H](Cc2ccc(OCC(=O)O)cc2)NC(=O)[C@H](C(C)O)NC(=O)CSC[C@@H](C(=O)N[C@@H](CCN)C(=O)NCCCCCCCCCCC(=O)O)NC(=O)[C@H](CCC(=O)O)NC(=O)[C@H](C(C)C)NC(=O)[C@H](CC2CCCCC2)NC(=O)[C@H](CCN)NC1=O` (stereo partly drawn) [Example 2574] ({CH2CO}-[Thr(3ξ)]Y(Carboxymethyl)D[Phe(3-CF3)][Phe(4-COOH)][Bip]Y(Carboxymethyl)[NMeA][dL][Dab][Cha]VEC[Dab][Aun]-OH; thioether N-14) has an IC50 of 4.4 nM. For `CC(C)C[C@H]1NC(=O)[C@H](C)N(C)C(=O)[C@H](Cc2ccc(OCC(=O)O)cc2)NC(=O)[C@H](Cc2ccc(-c3ccccc3)cc2)NC(=O)[C@H](Cc2ccc(C(=O)O)cc2)NC(=O)[C@H](Cc2cccc(C(F)(F)F)c2)NC(=O)[C@H](CC(=O)O)NC(=O)[C@H](Cc2ccc(OCC(=O)O)cc2)NC(=O)[C@H](C(C)O)NC(=O)CSC[C@@H](C(=O)N[C@@H](CCN)C(=O)NCCCCCCCCCCC(=O)O)NC(=O)[C@H](CO)NC(=O)[C@H](C(C)(C)O)NC(=O)[C@H](CC2CCCCC2)NC(=O)[C@H](Cc2cnc[nH]2)NC1=O` (stereo partly drawn) [Example 2575] ({CH2CO}-[Thr(3ξ)]Y(Carboxymethyl)D[Phe(3-CF3)][Phe(4-COOH)][Bip]Y(Carboxymethyl)[NMeA][dL]H[Cha][Val(3-OH)]SC[Dab][Aun]-OH; thioether N-14), the IC50 was 29.6 nM. `CC(=O)NCCCC[C@@H]1NC(=O)[C@H](C(C)(C)O)NC(=O)[C@H](CC2CCCCC2)NC(=O)[C@H](CCN)NC(=O)[C@@H](CC(C)C)NC(=O)[C@H](C)N(C)C(=O)[C@H](CCC(N)=O)NC(=O)[C@H](Cc2ccc(-c3ccccc3)cc2)NC(=O)[C@H](Cc2ccc(C(=O)O)cc2)NC(=O)[C@H](Cc2cccc(C)c2)NC(=O)[C@H](CC(=O)O)NC(=O)[C@H](Cc2ccc(OCC(=O)O)cc2)NC(=O)[C@H](Cc2ccc(OCC(=O)O)cc2)NC(=O)CSC[C@@H](C(=O)N[C@@H](CCN)C(=O)NCCOCCOCC(=O)NCCCCCCCCCCCCCCC(=O)O)NC1=O` [Example 2576] ({CH2CO}-Y(Carboxymethyl)Y(Carboxymethyl)D[Phe(3-Me)][Phe(4-COOH)][Bip]Q[NMeA][dL][Dab][Cha][Val(3-OH)]K(Ac)C[Dab][AEEA]-{NH(CH2)14COOH}; thioether N-14) was tested, and the IC50 was 103 nM.
